PubChem BioAssay (NCI)
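GI50: concentration for 50% inhibition of growth. At the TGI there is no net growth.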

Assays:
Assay in all cases: NCI-60 cell line screen, 384-well format
SK-MEL-28 melanoma = system: SK-MEL-28 melanoma
SNB-75 CNS = system: SNB-75 CNS
RXF 393 renal = system: RXF 393 renal
COLO 205 colon = system: COLO 205 colon
UACC-257 melanoma = system: UACC-257 melanoma
BT-549 breast = system: BT-549 breast
HCT-116 colon = system: HCT-116 colon
SF-539 CNS = system: SF-539 CNS
PC-3 prostate = system: PC-3 prostate
T-47D breast = system: T-47D breast
MDA-MB-435 melanoma = system: MDA-MB-435 melanoma
A498 renal = system: A498 renal
SK-MEL-2 melanoma = system: SK-MEL-2 melanoma
HCC-2998 colon = system: HCC-2998 colon
NCI/ADR-RES ovarian = system: NCI/ADR-RES ovarian
CAKI-1 renal = system: CAKI-1 renal
SNB-19 CNS = system: SNB-19 CNS
LOX IMVI melanoma = system: LOX IMVI melanoma
SK-MEL-5 melanoma = system: SK-MEL-5 melanoma
HOP-62 NSCLC = system: HOP-62 NSCLC
SF-295 CNS = system: SF-295 CNS
SN12C renal = system: SN12C renal
KM12 colon = system: KM12 colon
HT29 colon = system: HT29 colon
NCI-H322M lung = system: NCI-H322M lung
OVCAR-4 ovarian = system: OVCAR-4 ovarian
UACC-62 melanoma = system: UACC-62 melanoma
HCT-15 colon = system: HCT-15 colon
NCI-H23 lung = system: NCI-H23 lung
EKVX NSCLC = system: EKVX NSCLC
SF-268 CNS = system: SF-268 CNS
K-562 leukemia = system: K-562 leukemia
MCF7 breast = system: MCF7 breast
MOLT-4 leukemia = system: MOLT-4 leukemia
IGROV1 ovarian = system: IGROV1 ovarian
MALME-3M melanoma = system: MALME-3M melanoma
SW-620 colon = system: SW-620 colon
NCI-H460 NSCLC = system: NCI-H460 NSCLC
NCI-H522 lung = system: NCI-H522 lung
OVCAR-8 ovarian = system: OVCAR-8 ovarian
M14 melanoma = system: M14 melanoma
NCI-H226 lung = system: NCI-H226 lung
HOP-92 NSCLC = system: HOP-92 NSCLC
OVCAR-3 ovarian = system: OVCAR-3 ovarian
RPMI-8226 leukemia = system: RPMI-8226 leukemia
OVCAR-5 ovarian = system: OVCAR-5 ovarian
MDA-MB-468 breast = system: MDA-MB-468 breast
MDA-MB-231 breast = system: MDA-MB-231 breast
HS 578T breast = system: HS 578T breast
SK-OV-3 ovarian = system: SK-OV-3 ovarian
U251 glioblastoma = system: U251 glioblastoma
TK-10 renal = system: TK-10 renal
DU-145 prostate = system: DU-145 prostate
A549 NSCLC = system: A549 NSCLC
786-0 renal = system: 786-0 renal
UO-31 renal = system: UO-31 renal
ACHN renal = system: ACHN renal
CCRF-CEM leukemia = system: CCRF-CEM leukemia

## Cc1cc(C(=O)N[C@@H](CCC(=O)O)C(=O)O)sc1CC[C@@H]1CNc2nc(N)[nH]c(=O)c2C1
SK-MEL-28 melanoma
  GI50: 0.0184 µM
  TGI: 0.0359 µM
SNB-75 CNS
  GI50: < 0.01 µM
  TGI: < 0.01 µM
RXF 393 renal
  GI50: < 0.01 µM
  TGI: 0.0162 µM
COLO 205 colon
  GI50: 0.0254 µM
  TGI: 0.0561 µM
UACC-257 melanoma
  GI50: 0.0102 µM
  TGI: 0.0277 µM
BT-549 breast
  GI50: 0.0183 µM
  TGI: 0.035 µM
HCT-116 colon
  GI50: < 0.01 µM
  TGI: 0.024 µM
SF-539 CNS
  GI50: < 0.01 µM
  TGI: 0.021 µM
PC-3 prostate
  GI50: < 0.01 µM
  TGI: < 0.01 µM
T-47D breast
  GI50: 0.0217 µM
  TGI: 0.0601 µM
MDA-MB-435 melanoma
  GI50: 0.0185 µM
  TGI: 0.0364 µM
A498 renal
  GI50: < 0.01 µM
  TGI: 0.0149 µM
SK-MEL-2 melanoma
  GI50: < 0.01 µM
  TGI: 0.0147 µM
HCC-2998 colon
  GI50: 0.0332 µM
  TGI: 1.03 µM
NCI/ADR-RES ovarian
  GI50: 0.0201 µM
  TGI: 0.0373 µM
CAKI-1 renal
  GI50: < 0.01 µM
  TGI: < 0.01 µM
SNB-19 CNS
  GI50: < 0.01 µM
  TGI: 0.0231 µM
LOX IMVI melanoma
  GI50: 0.02 µM
  TGI: 0.04 µM
SK-MEL-5 melanoma
  GI50: 0.0305 µM
  TGI: 0.135 µM
HOP-62 NSCLC
  GI50: 0.0179 µM
  TGI: 0.0378 µM
SF-295 CNS
  GI50: 0.0194 µM
  TGI: 0.0368 µM
SN12C renal
  GI50: < 0.01 µM
  TGI: < 0.01 µM
KM12 colon
  GI50: 0.0285 µM
  TGI: 0.0727 µM
HT29 colon
  GI50: 0.0174 µM
  TGI: 0.0372 µM
NCI-H322M lung
  GI50: 0.0202 µM
  TGI: 0.0394 µM
OVCAR-4 ovarian
  GI50: 0.0206 µM
  TGI: 0.0435 µM
UACC-62 melanoma
  GI50: 0.021 µM
  TGI: 0.0501 µM
HCT-15 colon
  GI50: 0.025 µM
  TGI: 0.0578 µM
NCI-H23 lung
  GI50: 0.0392 µM
  TGI: 0.157 µM
EKVX NSCLC
  GI50: 0.0114 µM
  TGI: 0.0274 µM
SF-268 CNS
  GI50: < 0.01 µM
  TGI: 0.0208 µM
K-562 leukemia
  GI50: < 0.01 µM
  TGI: < 0.01 µM
MCF7 breast
  GI50: 0.0157 µM
  TGI: 0.037 µM
MOLT-4 leukemia
  GI50: < 0.01 µM
  TGI: < 0.01 µM
IGROV1 ovarian
  GI50: 0.0199 µM
  TGI: 0.04 µM
MALME-3M melanoma
  GI50: 0.02 µM
  TGI: 0.0372 µM
SW-620 colon
  GI50: 0.0124 µM
  TGI: 0.0301 µM
NCI-H460 NSCLC
  GI50: < 0.01 µM
  TGI: 0.0827 µM
NCI-H522 lung
  GI50: 0.0127 µM
  TGI: 0.0285 µM
OVCAR-8 ovarian
  GI50: 0.017 µM
  TGI: 0.0346 µM
M14 melanoma
  GI50: < 0.01 µM
  TGI: 0.0201 µM
NCI-H226 lung
  GI50: 0.0172 µM
  TGI: 0.0394 µM
HOP-92 NSCLC
  GI50: < 0.01 µM
  TGI: < 0.01 µM
OVCAR-3 ovarian
  GI50: 0.019 µM
  TGI: 0.0412 µM
RPMI-8226 leukemia
  GI50: 0.0182 µM
  TGI: 0.0363 µM
OVCAR-5 ovarian
  GI50: 0.0101 µM
  TGI: 0.0238 µM
MDA-MB-468 breast
  GI50: 0.0194 µM
  TGI: 0.0416 µM
MDA-MB-231 breast
  GI50: 0.345 µM
  TGI: 1.2 µM
HS 578T breast
  GI50: 0.0158 µM
  TGI: 0.0382 µM
SK-OV-3 ovarian
  GI50: < 0.01 µM
  TGI: 0.0245 µM
U251 glioblastoma
  GI50: < 0.01 µM
  TGI: < 0.01 µM
TK-10 renal
  GI50: < 0.01 µM
  TGI: < 0.01 µM
DU-145 prostate
  GI50: < 0.01 µM
  TGI: < 0.01 µM
A549 NSCLC
  GI50: 0.0215 µM
  TGI: 0.046 µM
786-0 renal
  GI50: < 0.01 µM
  TGI: < 0.01 µM
UO-31 renal
  GI50: < 0.01 µM
  TGI: 0.0116 µM
ACHN renal
  GI50: < 0.01 µM
  TGI: 0.0225 µM
CCRF-CEM leukemia
  GI50: < 0.01 µM
  TGI: < 0.01 µM
